Results published in the Kinase Knowledgebase extract (Sharma et al. 2016).

How the values were obtained:
EGFR (human) [1] = molecular target: EGFR (human) (UniProt P00533); conditions: a431
EGFR (human) [2] = molecular target: EGFR (human) (UniProt P00533); conditions: a431; remark: listed apart in the source
EGFR (human) [3] = molecular target: EGFR (human) (UniProt P00533); conditions: A431
EGFR (human) [4] = molecular target: EGFR (human) (UniProt P00533); conditions: a431; remark: listed apart in the source

EGFR (human), sequence (P00533 whole entry, looked up): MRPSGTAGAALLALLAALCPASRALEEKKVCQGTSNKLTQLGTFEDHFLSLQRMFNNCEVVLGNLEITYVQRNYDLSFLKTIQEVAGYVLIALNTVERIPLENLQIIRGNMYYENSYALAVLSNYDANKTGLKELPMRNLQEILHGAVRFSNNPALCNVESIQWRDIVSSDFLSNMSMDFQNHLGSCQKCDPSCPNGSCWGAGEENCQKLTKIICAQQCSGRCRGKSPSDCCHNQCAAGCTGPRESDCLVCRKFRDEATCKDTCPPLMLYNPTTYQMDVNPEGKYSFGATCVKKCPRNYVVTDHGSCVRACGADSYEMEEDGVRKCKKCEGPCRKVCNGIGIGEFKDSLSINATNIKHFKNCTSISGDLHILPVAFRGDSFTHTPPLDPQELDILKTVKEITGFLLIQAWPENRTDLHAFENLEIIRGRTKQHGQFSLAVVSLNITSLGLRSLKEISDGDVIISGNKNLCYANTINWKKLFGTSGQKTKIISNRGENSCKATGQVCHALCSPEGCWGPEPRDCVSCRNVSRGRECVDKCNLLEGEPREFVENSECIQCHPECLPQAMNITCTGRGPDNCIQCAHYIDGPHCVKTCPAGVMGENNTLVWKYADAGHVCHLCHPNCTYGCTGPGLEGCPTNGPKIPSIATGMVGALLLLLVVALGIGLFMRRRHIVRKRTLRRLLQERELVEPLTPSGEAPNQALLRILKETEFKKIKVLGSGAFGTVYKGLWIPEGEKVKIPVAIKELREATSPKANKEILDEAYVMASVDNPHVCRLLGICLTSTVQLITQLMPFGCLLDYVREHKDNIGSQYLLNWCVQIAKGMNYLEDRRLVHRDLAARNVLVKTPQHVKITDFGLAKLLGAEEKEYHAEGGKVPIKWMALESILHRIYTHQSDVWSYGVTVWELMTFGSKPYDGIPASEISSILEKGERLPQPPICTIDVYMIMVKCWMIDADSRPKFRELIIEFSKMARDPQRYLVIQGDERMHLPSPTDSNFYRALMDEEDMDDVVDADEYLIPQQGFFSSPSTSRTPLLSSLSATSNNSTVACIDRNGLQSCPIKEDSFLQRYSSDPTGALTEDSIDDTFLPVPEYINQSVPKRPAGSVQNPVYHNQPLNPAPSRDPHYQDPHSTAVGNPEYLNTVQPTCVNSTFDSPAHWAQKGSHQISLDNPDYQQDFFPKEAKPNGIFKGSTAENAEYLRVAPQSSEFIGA

Question: COc1cc2ncnc(N3CCN(c4ccccn4)CC3)c2cc1OC was tested. Which IC50 (EGFR (human) [1]) did it give?
Answer: Its IC50 is 63.5 µM.

Question: And the IC50 (EGFR (human) [2])?
Answer: Its IC50 is 67.4 µM.

Question: What about the inhibition (EGFR (human) [3]) of the same compound?
Answer: Its inhibition is 0.

Question: Which results are given for COc1cc2nc3nccn3c(Nc3cccc(Br)c3)c2cc1OC?
Answer: IC50 (EGFR (human) [1]): 6.8 µM; IC50 (EGFR (human) [2]): 6.6 µM; inhibition (EGFR (human) [3]): 0

Question: Which results are given for COc1ccc(CCNc2ncnc3cc(OC)c(OC)cc23)cc1OC?
Answer: IC50 (EGFR (human) [1]): 26.5 µM; IC50 (EGFR (human) [2]): 30 µM; inhibition (EGFR (human) [3]): 0

Question: COc1cc2nc(Nc3cccc(Br)c3)nc(Nc3cccc(Br)c3)c2cc1OC was tested. Which IC50 (EGFR (human) [1]) did it give?
Answer: Its IC50 is 13.2 µM.

Question: And the IC50 (EGFR (human) [2])?
Answer: Its IC50 is 25.3 µM.

Question: What about the inhibition (EGFR (human) [3]) of the same compound?
Answer: Its inhibition is 0.

Question: Which inhibition (EGFR (human) [4]) does the source give for COc1cc2ncnc(N(C)c3cccc(Br)c3)c2cc1OC here?
Answer: Its inhibition is 0.

Question: What about the inhibition (EGFR (human) [3]) of the same compound?
Answer: Its inhibition is 0.

Question: Which results are given for COc1cc2ncnc(N3CCS(=O)(=O)CC3)c2cc1OC?
Answer: IC50 (EGFR (human) [1]): > 100 µM; IC50 (EGFR (human) [2]): > 100 µM; inhibition (EGFR (human) [3]): 0

Question: How did the IC50 (EGFR (human) [1]) turn out when COc1cccc(Nc2ncnc3cc(OC)c(OC)cc23)c1 was run?
Answer: The IC50 was 11.7 µM.

Question: What about the IC50 (EGFR (human) [2]) of the same compound?
Answer: The IC50 was 77 µM.

Question: And the IC50 (EGFR (human) [4])?
Answer: Its IC50 is 0.706 µM.

Question: What about the IC50 (EGFR (human) [3]) of the same compound?
Answer: The IC50 was 1.6 µM.

Question: With COc1cc2ncnc(N3CCN(c4ccccc4Cl)CC3)c2cc1OC as the compound, how does the IC50 (EGFR (human) [1]) read?
Answer: The IC50 was 13.7 µM.

Question: And the IC50 (EGFR (human) [2])?
Answer: The IC50 was 14.6 µM.

Question: What about the inhibition (EGFR (human) [3]) of the same compound?
Answer: Its inhibition is 0.

Question: How did the IC50 (EGFR (human) [1]) turn out when COc1ccc(CNc2ncnc3cc(OC)c(OC)cc23)cc1OC was run?
Answer: The IC50 was 27.1 µM.

Question: What about the IC50 (EGFR (human) [2]) of the same compound?
Answer: The IC50 was 30 µM.

Question: And the IC50 (EGFR (human) [3])?
Answer: Its IC50 is 31.6 µM.

Question: With COc1cc2ncnc(N3CCNCC3)c2cc1OC as the compound, how does the IC50 (EGFR (human) [1]) read?
Answer: The IC50 was > 100 µM.

Question: What about the IC50 (EGFR (human) [2]) of the same compound?
Answer: The IC50 was > 100 µM.

Question: And the inhibition (EGFR (human) [3])?
Answer: The inhibition was 0.

Question: What does the source list for COc1cc2ncnc(Nc3ccccc3[N+](=O)[O-])c2cc1OC?
Answer: IC50 (EGFR (human) [1]): 4.4 µM; IC50 (EGFR (human) [2]): > 100 µM; IC50 (EGFR (human) [4]): 0.563 µM; IC50 (EGFR (human) [3]): 0.0437 µM

Question: Which results are given for COc1cc2ncnc(N3CCOCC3)c2cc1OC?
Answer: IC50 (EGFR (human) [1]): > 100 µM; IC50 (EGFR (human) [2]): > 100 µM; inhibition (EGFR (human) [3]): 0

Question: Which results are given for COc1cc2ncnc(N3CCN(c4ccccc4C)CC3)c2cc1OC?
Answer: IC50 (EGFR (human) [1]): > 100 µM; IC50 (EGFR (human) [2]): > 100 µM; inhibition (EGFR (human) [3]): 0

Question: How did the IC50 (EGFR (human) [1]) turn out when COc1cc2ncnc(N3CCN(Cc4ccccc4)CC3)c2cc1OC was run?
Answer: The IC50 was 21.8 µM.

Question: What about the IC50 (EGFR (human) [2]) of the same compound?
Answer: The IC50 was 34.6 µM.

Question: And the IC50 (EGFR (human) [3])?
Answer: The IC50 was 17.9 µM.

Question: COc1cc2c(Nc3cccc(Br)c3)nc3nnnn3c2cc1OC was tested. Which IC50 (EGFR (human) [1]) did it give?
Answer: Its IC50 is > 100 µM.

Question: And the IC50 (EGFR (human) [2])?
Answer: The IC50 was > 100 µM.

Question: And the inhibition (EGFR (human) [3])?
Answer: The inhibition was 0.

Question: What does the source list for COc1cc2ncnc(N3CCN(c4ccccc4)CC3)c2cc1OC?
Answer: IC50 (EGFR (human) [1]): 30.8 µM; IC50 (EGFR (human) [2]): 33.6 µM; inhibition (EGFR (human) [3]): 0

Question: What does the source list for COc1cc2ncnc(NCCNc3ccccc3)c2cc1OC?
Answer: IC50 (EGFR (human) [1]): > 100 µM; IC50 (EGFR (human) [2]): > 100 µM; IC50 (EGFR (human) [3]): 31.6 µM

Question: Which results are given for COc1cc2nc(N3CCOCC3)nc(N3CCOCC3)c2cc1OC?
Answer: IC50 (EGFR (human) [1]): > 100 µM; IC50 (EGFR (human) [2]): > 100 µM; inhibition (EGFR (human) [3]): 0

Question: How did the IC50 (EGFR (human) [1]) turn out when COc1cc2ncnc(N3CCN(c4cccc(C(F)(F)F)c4)CC3)c2cc1OC was run?
Answer: The IC50 was 4.7 µM.

Question: And the IC50 (EGFR (human) [2])?
Answer: Its IC50 is 3.9 µM.

Question: What about the inhibition (EGFR (human) [3]) of the same compound?
Answer: The inhibition was 0.

Question: How did the IC50 (EGFR (human) [1]) turn out when COc1cc2ncnc(N3CCN(c4ccccc4OC)CC3)c2cc1OC was run?
Answer: Its IC50 is 1.4 µM.

Question: And the IC50 (EGFR (human) [2])?
Answer: Its IC50 is 2.1 µM.

Question: What about the inhibition (EGFR (human) [3]) of the same compound?
Answer: Its inhibition is 0.

Question: How did the IC50 (EGFR (human) [1]) turn out when COc1cc2ncnc(N3CCN(c4cccc(Cl)c4)CC3)c2cc1OC was run?
Answer: The IC50 was > 100 µM.

Question: What about the IC50 (EGFR (human) [2]) of the same compound?
Answer: The IC50 was > 100 µM.

Question: What about the inhibition (EGFR (human) [3]) of the same compound?
Answer: Its inhibition is 0.

Question: For COc1ccc(N2CCN(c3ncnc4cc(OC)c(OC)cc34)CC2)cc1, which IC50 (EGFR (human) [1]) is on record?
Answer: Its IC50 is > 100 µM.

Question: What about the IC50 (EGFR (human) [2]) of the same compound?
Answer: The IC50 was > 100 µM.

Question: And the inhibition (EGFR (human) [3])?
Answer: The inhibition was 0.

Question: With COc1cc2ncnc(N3CCN(c4ccc(Cl)cc4)CC3)c2cc1OC as the compound, how does the IC50 (EGFR (human) [1]) read?
Answer: Its IC50 is 24.7 µM.

Question: And the IC50 (EGFR (human) [2])?
Answer: The IC50 was 85 µM.

Question: What about the IC50 (EGFR (human) [3]) of the same compound?
Answer: Its IC50 is 0.0047 µM.

Question: How did the IC50 (EGFR (human) [1]) turn out when COc1cc2ncnc(N3CCSCC3)c2cc1OC was run?
Answer: The IC50 was > 100 µM.

Question: What about the IC50 (EGFR (human) [2]) of the same compound?
Answer: The IC50 was > 100 µM.

Question: What about the inhibition (EGFR (human) [3]) of the same compound?
Answer: Its inhibition is 0.

Question: For COc1cc2nc(Nc3cccc(Br)c3)n3nnnc3c2cc1OC, which IC50 (EGFR (human) [1]) is on record?
Answer: Its IC50 is > 100 µM.

Question: What about the IC50 (EGFR (human) [2]) of the same compound?
Answer: Its IC50 is > 100 µM.

Question: What about the inhibition (EGFR (human) [3]) of the same compound?
Answer: The inhibition was 0.

Question: What does the source list for COc1cc2ncnc(N3CCN(c4ccc(F)cc4)CC3)c2cc1OC?
Answer: IC50 (EGFR (human) [1]): > 100 µM; IC50 (EGFR (human) [2]): > 100 µM; inhibition (EGFR (human) [3]): 0

Question: What does the source list for COc1ccc(CCCNc2ncnc3cc(OC)c(OC)cc23)cc1OC?
Answer: IC50 (EGFR (human) [1]): 22.8 µM; IC50 (EGFR (human) [2]): 3 µM; inhibition (EGFR (human) [3]): 0

Question: Which results are given for COc1cc2ncnc(N3CCN(c4ccc([N+](=O)[O-])cc4)CC3)c2cc1OC?
Answer: IC50 (EGFR (human) [1]): 40.8 µM; IC50 (EGFR (human) [2]): > 100 µM; IC50 (EGFR (human) [3]): 0.0168 µM

Question: What does the source list for COc1cccc(N2CCN(c3ncnc4cc(OC)c(OC)cc34)CC2)c1?
Answer: IC50 (EGFR (human) [1]): 38.7 µM; IC50 (EGFR (human) [2]): 58.8 µM; inhibition (EGFR (human) [3]): 0

Question: What does the source list for COc1ccc(Nc2ncnc3cc(OC)c(OC)cc23)cc1OC?
Answer: IC50 (EGFR (human) [1]): > 100 µM; IC50 (EGFR (human) [2]): > 100 µM; IC50 (EGFR (human) [3]): 9.4 µM

Question: Which results are given for COc1ccc(CCCCNc2ncnc3cc(OC)c(OC)cc23)cc1OC?
Answer: IC50 (EGFR (human) [1]): > 100 µM; IC50 (EGFR (human) [2]): > 100 µM; inhibition (EGFR (human) [3]): 0

Question: How did the IC50 (EGFR (human) [1]) turn out when COc1cc2ncnc(N3CCN(c4ccccc4F)CC3)c2cc1OC was run?
Answer: Its IC50 is > 100 µM.

Question: What about the IC50 (EGFR (human) [2]) of the same compound?
Answer: The IC50 was > 100 µM.

Question: What about the inhibition (EGFR (human) [3]) of the same compound?
Answer: The inhibition was 0.
